According to patent US20260374754A1, “N-((ISOQUINOLIN-6-YL)METHYL)-1H-PYRAZOLE-4-CARBOXAMIDE DERIVATIVES AS PLASMA KALLIKREIN INHIBITORS FOR THE TREATMENT OF HEREDITARY ANGIODEMA” (Takeda Pharmaceutical Company Limited, priority 2022, published 2026):

biological target: human activated kallikrein enzyme (Homo sapiens, UniProt P03952); assay: Inhibition of human activated plasma kallikrein, fluorogenic PFR-AMC substrate, 500 pM enzyme format; assay type: biochemical; settings: 500 pM activated kallikrein; 300 μM PFR-AMC; 30 min preincubation; 10 min room temperature; pH 7.5; read-out: Primary Dose Response Assay: Average EC50
In short: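 Using fluorogenic PFR-AMC at 300 μM, cleavage by 500 pM human activated kallikrein ran 10 min at room temperature, read at 460 nm emission (380 nm excitation). Enzyme and compounds were first preincubated 30 min in 20 mM Tris pH 7.5, 150 mM NaCl, 1 mM EDTA, 0.1% PEG-400, 0.1% Triton X-100.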

Chain of human activated kallikrein enzyme (P03952 391-638 limits assumed): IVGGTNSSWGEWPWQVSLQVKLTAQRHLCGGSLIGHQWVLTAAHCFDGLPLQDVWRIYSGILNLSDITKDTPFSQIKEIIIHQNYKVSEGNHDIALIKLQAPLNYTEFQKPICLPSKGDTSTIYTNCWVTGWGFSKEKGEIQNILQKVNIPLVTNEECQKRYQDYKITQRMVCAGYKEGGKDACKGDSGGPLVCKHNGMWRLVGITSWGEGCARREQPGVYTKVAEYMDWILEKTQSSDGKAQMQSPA
Chain of human activated kallikrein enzyme (P03952 20-390 partner limits assumed): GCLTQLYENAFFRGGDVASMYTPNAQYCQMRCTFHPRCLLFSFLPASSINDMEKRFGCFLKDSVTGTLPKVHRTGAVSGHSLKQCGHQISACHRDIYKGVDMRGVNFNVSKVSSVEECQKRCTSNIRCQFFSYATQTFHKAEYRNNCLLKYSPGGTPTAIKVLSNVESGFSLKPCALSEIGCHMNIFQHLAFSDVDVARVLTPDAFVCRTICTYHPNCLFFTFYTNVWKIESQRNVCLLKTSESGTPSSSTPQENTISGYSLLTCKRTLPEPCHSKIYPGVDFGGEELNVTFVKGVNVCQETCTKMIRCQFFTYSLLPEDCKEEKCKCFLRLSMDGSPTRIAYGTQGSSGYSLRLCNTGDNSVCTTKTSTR

| Compound | EC50 [nM] |
| --- | --- |
| Cc1cc2c(N)nccc2c(C)c1CNc1cc(OCc2ccc(CC(=O)N(C)C)cc2)ncn1 [Example I-466, 2-(4-(((6-(((1-amino-5,7-dimethylisoquinolin-6-yl)methyl)amino)pyrimidin-4-yl)oxy)methyl)phenyl)-N,N-dimethylacetamide] | 1 to 10 |
| Cc1cc2c(N)nccc2c(C)c1CNC(=O)c1cnn([C@@H](C)c2ccccc2)c1 [Example 34, (S)-N-((1-amino-5,7-dimethylisoquinolin-6-yl)methyl)-1-(1-phenylethyl)-1H-pyrazole-4-carboxamide] | 100 to 1000 |
| Cc1cc2c(N)nccc2c(C)c1CNC(=O)c1cnn(Cc2cc3ccccc3o2)c1 [Example 82, N-((1-amino-5,7-dimethylisoquinolin-6-yl)methyl)-1-(benzofuran-2-ylmethyl)-1H-pyrazole-4-carboxamide] | 10 to 100 |
| Cc1cc2c(N)nccc2c(C)c1CNC(=O)c1cnn(Cc2ccccc2C2CC2)c1 [Example 118, N-((1-amino-5,7-dimethylisoquinolin-6-yl)methyl)-1-(2-cyclopropylbenzyl)-1H-pyrazole-4-carboxamide] | 100 to 1000 |
| Cc1cc2c(N)nccc2c(C)c1CNc1cc(OCc2ccc(Cn3ccccc3=O)cc2)ncn1 [Example 301, 1-(4-(((6-(((1-amino-5,7-dimethylisoquinolin-6-yl)methyl)amino)pyrimidin-4-yl)oxy)methyl)benzyl)pyridin-2(1H)-one] | < 1 |
| Cc1cc2c(N)nccc2c(C)c1CNc1cc(OCc2ccccc2)ncn1 [Example 449, 6-(((6-(benzyloxy)pyrimidin-4-yl)amino)methyl)-5,7-dimethylisoquinolin-1-amine] | > 1000 |
| Cc1cc2c(N)nccc2c(C)c1CNc1cc(NCc2ccc3cnccc3c2)ncn1 [Example 320, N^4-((1-amino-5,7-dimethylisoquinolin-6-yl)methyl)-N^6-(isoquinolin-6-ylmethyl)pyrimidine-4,6-diamine] | 1 to 10 |
| Cc1cc2c(N)nccc2c(C)c1CNC(=O)c1cnn(Cc2ccc(CC(=O)N3C[C@@H]4[C@H](C3)[C@@H]4C(=O)O)cc2)c1 [Example 210, (1R,5S,6s)-3-(2-(4-((4-(((1-amino-5,7-dimethylisoquinolin-6-yl)methyl)carbamoyl)-1H-pyrazol-1-yl)methyl)phenyl)acetyl)-3-azabicyclo[3.1.0]hexane-6-carboxylic acid] | 1 to 10 |
| Cc1ccc2nc(Cn3cc(C(=O)NCc4c(C)cc5c(NC(=O)OCc6ccccc6)nccc5c4C)cn3)cn2c1 [Example 7, benzyl (5,7-dimethyl-6-((1-((6-methylimidazo[1,2-a]pyridin-2-yl)methyl)-1H-pyrazole-4-carboxamido)methyl)isoquinolin-1-yl)carbamate] | 10 to 100 |
| Cc1cc2c(N)nccc2c(C)c1CNc1cc(N(Cc2cn3nc(C4CC4)ccc3n2)CC(F)(F)F)ncn1 [Example 516, N^4-((1-amino-5,7-dimethylisoquinolin-6-yl)methyl)-N^6-((6-cyclopropylimidazo[1,2-b]pyridazin-2-yl)methyl)-N6-(2,2,2-trifluoroethyl)pyrimidine-4,6-diamine] | 10 to 100 |
| Cc1cc2nc(Cn3cc(C(=O)NCc4c(C)cc5c(N)nccc5c4C)cn3)cn2cc1Br [Example 135, N-((1-amino-5,7-dimethylisoquinolin-6-yl)methyl)-1-((6-bromo-7-methylimidazo[1,2-a]pyridin-2-yl)methyl)-1H-pyrazole-4-carboxamide] | < 1 |
| Cc1cc2c(N)nccc2c(C)c1CNC(=O)c1cnn([C@H](C)c2ccccc2)c1 [Example 127, (R)-N-((1-amino-5,7-dimethylisoquinolin-6-yl)methyl)-1-(1-phenylethyl)-1H-pyrazole-4-carboxamide] | 100 to 1000 |
| COc1ccccc1Cn1cc(C(=O)NCc2c(C)cc3c(N)nccc3c2C)cn1 [Example 33, N-((1-amino-5,7-dimethylisoquinolin-6-yl)methyl)-1-(2-methoxybenzyl)-1H-pyrazole-4-carboxamide] | 100 to 1000 |
| Cc1cc2c(N)nccc2c(C)c1CNC(=O)c1cnn(C(F)(F)c2ccc(Br)cc2)c1 [Example I-469, N-((1-amino-5,7-dimethylisoquinolin-6-yl)methyl)-1-((4-bromophenyl)difluoromethyl)-1H-pyrazole-4-carboxamide] | 100 to 1000 |
| Cc1cc2c(N)nccc2c(C)c1CNC(=O)c1cnn(Cc2ccc(Cc3cccn4ccnc34)cc2)c1 [Example 167, N-((1-amino-5,7-dimethylisoquinolin-6-yl)methyl)-1-(4-(imidazo[1,2-a]pyridin-8-ylmethyl)benzyl)-1H-pyrazole-4-carboxamide] | < 1 |
| Cc1cc2c(N)nccc2c(C)c1CNC(=O)c1cnn(Cc2ccc(CC(=O)NC34CC(C3)C4)cc2)c1 [Example 221, N-((1-amino-5,7-dimethylisoquinolin-6-yl)methyl)-1-(4-(2-(bicyclo[1.1.1]pentan-1-ylamino)-2-oxoethyl)benzyl)-1H-pyrazole-4-carboxamide] | 1 to 10 |

| Compound | EC50 [nM] |
| --- | --- |
| Cc1cc2c(N)nccc2c(C)c1CNc1cc(OCc2cccc(-n3ccccc3=O)c2)cnn1 [Example 435, 1-(3-(((6-(((1-amino-5,7-dimethylisoquinolin-6-yl)methyl)amino)pyridazin-4-yl)oxy)methyl)phenyl)pyridin-2(1H)-one] | 1 to 10 |
| Cc1cc2c(N)nccc2c(C)c1CNc1cc(C(F)(F)c2cn3cc(C4CC4)ccc3n2)ncn1 [Example 404, 6-(((6-((6-cyclopropylimidazo[1,2-a]pyridin-2-yl)difluoromethyl)pyrimidin-4-yl)amino)methyl)-5,7-dimethylisoquinolin-1-amine] | 10 to 100 |
| Cc1ccc2nc(Cn3cc(C(=O)NCc4c(C)cc5c(NC(=O)OCC(C)C)nccc5c4C)cn3)cn2c1 [Example 5, isobutyl (5,7-dimethyl-6-((1-((6-methylimidazo[1,2-a]pyridin-2-yl)methyl)-1H-pyrazole-4-carboxamido)methyl)isoquinolin-1-yl)carbamate] | 10 to 100 |
| Cc1cc2c(N)nccc2c(C)c1CNc1cc(NCc2ccc(Cc3nccs3)cc2)ncn1 [Example 362, N^4-((1-amino-5,7-dimethylisoquinolin-6-yl)methyl)-N^6-(4-(thiazol-2-ylmethyl)benzyl)pyrimidine-4,6-diamine] | < 1 |
| Cc1cc2c(N)nccc2c(C)c1CNc1cc(OCc2ccc(-n3ccccc3=O)cc2)ncn1 [Example 296, 1-(4-(((6-(((1-amino-5,7-dimethylisoquinolin-6-yl)methyl)amino)pyrimidin-4-yl)oxy)methyl)phenyl)pyridin-2(1H)-one] | 10 to 100 |
| Cc1cc2c(Nc3cc(OCc4ccc5ncc(C6CC6)cc5c4)ccn3)nccc2c(C)c1CN [Example 238, 6-(aminomethyl)-N-(4-((3-cyclopropylquinolin-6-yl)methoxy)pyridin-2-yl)-5,7-dimethylisoquinolin-1-amine] | 100 to 1000 |
| Cc1cc2c(N)nccc2c(C)c1CNc1cc(NCc2ccc(Cc3cscn3)cc2)ncn1 [Example 350, N^4-((1-amino-5,7-dimethylisoquinolin-6-yl)methyl)-N^6-(4-(thiazol-4-ylmethyl)benzyl)pyrimidine-4,6-diamine] | < 1 |
| Cc1c(CN)c(C2(C)CC2)cc2c(Nc3cc(OCc4cn5cc(C6CC6)ccc5n4)ncn3)nccc12 [Example 255, 6-(aminomethyl)-N-(6-((6-cyclopropylimidazo[1,2-a]pyridin-2-yl)methoxy)pyrimidin-4-yl)-5-methyl-7-(1-methylcyclopropyl)isoquinolin-1-amine] | 100 to 1000 |
| Cc1cc2c(N)nccc2c(C)c1CNC(=O)c1cnn(C(C)c2ccc3ncc(Cl)cc3c2)c1 (centres unmarked) [Example 120, N-((1-amino-5,7-dimethylisoquinolin-6-yl)methyl)-1-(1-(3-chloroquinolin-6-yl)ethyl)-1H-pyrazole-4-carboxamide] | < 1 |
| Cc1cc2c(N)nccc2c(C)c1CNC(=O)c1cnn(Cc2cccnc2)c1 [Example 88, N-((1-amino-5,7-dimethylisoquinolin-6-yl)methyl)-1-(pyridin-3-ylmethyl)-1H-pyrazole-4-carboxamide] | 10 to 100 |
| Cc1cc2c(N)nccc2c(C)c1CNC(=O)c1cnn(Cc2ccc3c(-c4ccccn4)cccc3c2)c1 [Example 114, N-((1-amino-5,7-dimethylisoquinolin-6-yl)methyl)-1-((5-(pyridin-2-yl)naphthalen-2-yl)methyl)-1H-pyrazole-4-carboxamide] | < 1 |
| Cc1cc2c(N)nccc2c(C)c1CNC(=O)c1cnn(Cc2ccc(CC(=O)N(C)Cc3ccccc3)cc2)c1 [Example 220, N-((1-amino-5,7-dimethylisoquinolin-6-yl)methyl)-1-(4-(2-(benzyl(methyl)amino)-2-oxoethyl)benzyl)-1H-pyrazole-4-carboxamide] | 1 to 10 |
| Cc1cc2c(N)nccc2c(C)c1CNC(=O)c1cnn(Cc2ccc(CC(=O)N(C)CC3CC3)cc2)c1 [Example 204, N-((1-amino-5,7-dimethylisoquinolin-6-yl)methyl)-1-(4-(2-((cyclopropylmethyl)(methyl)amino)-2-oxoethyl)benzyl)-1H-pyrazole-4-carboxamide] | 1 to 10 |
| Cc1cc2c(N)nccc2c(C)c1CNC(=O)c1cnn(Cc2ccc(Cc3nnco3)cc2)c1 [Example 44, 1-(4-((1,3,4-oxadiazol-2-yl)methyl)benzyl)-N-((1-amino-5,7-dimethylisoquinolin-6-yl)methyl)-1H-pyrazole-4-carboxamide] | 1 to 10 |
| Cc1cc2c(N)nccc2c(C)c1CNc1cc(NCc2ccc3ccccc3n2)ncn1 [Example 306, N^4-((1-amino-5,7-dimethylisoquinolin-6-yl)methyl)-N^6-(quinolin-2-ylmethyl)pyrimidine-4,6-diamine] | 10 to 100 |
| Cc1cc2c(N)nccc2c(C)c1CNc1ncnc2[nH]c(Cc3ccc4ccccc4c3)cc12 [Example 540, 5,7-dimethyl-6-(((6-(naphthalen-2-ylmethyl)-7H-pyrrolo[2,3-d]pyrimidin-4-yl)amino)methyl)isoquinolin-1-amine] | 10 to 100 |
